Laboratory results as given in patent publication US4086347A, “9-[3-(4-Phenoxymethylpiperidino)-propyl]-adenines” (Boehringer Mannheim GmbH, priority 1975, dated 1978).

Legend:
[1] = test system: passive cutaneous anaphylactic reaction in rats produced by injection of serum containing reaginic antibodies to egg albumin; test: Inhibition of passive cutaneous anaphylactic (PCA) reaction in rats induced by reaginic antibodies; assay type: in vivo, rat; settings: intravenously immediately before antigen
Procedure: Diethylcarbamazin, i.e., 1-diethylcarbamoyl-4-methylpiperazine was used as a comparison compound. Specifically, tests were run as follows:
Serum containing reaginic (IgE-like) antibody to egg albumin was prepared by injecting rats intramuscularly with 0.1 ml of a solution of the antigen (10 mg/ml) in saline together with 0.5 ml of Bordetella pertussis vaccine (Behring; 2 × 10^10 organisms/ml). 9-14 Days later the animals were bled from the abdominal aorta; the serum was pooled and stored at -20° C until required. The titer of the serum, i.e., the highest dilution inducing passive cutaneous anaphylaxis (PCA) in the rat following a 48-hour latent period, was between 1:8 and 1:32. For use in these experiments the serum was diluted 1:24.
The animals were anesthetized with 2,2-dichloro-1,1-difluoroethyl-methyl ether, sold under the trademark Penthrane, and were sensitized by injecting 0.1 ml of the antiserum into the shaved abdominal flanks. After 48 hours for reaginic PCA, the animals were given an intravenous injection of 1 ml of saline solution containing 0.5% by weight of egg albumin and 0.25% by weight of Evans Blue.
After having killed and exsanguinated the animals, the size in square millimeters and the intensity, in arbitary scores, of the resulting blue spot were determined. The product of these two parameters was used to determine the degree of the reaction and the degree of reaction with no active material was taken as the standard against which to measure % inhibition of the anaphylactic reaction.
6 Animals were used per dose level and for control.
The test material was injected intravenously immediately before the antigen, using a solution in water containing 0.5% HCl and 2% of dimethylformamide. For comparative purposes there was also tested diethylcarbamoyl-4-methylpiperazine sold under the tradename Diethylcarbamazin. The volumes of the injections were varied to give the indicated dosage of active material. The results obtained were as follows:
(Ovalbumin 2 × cryst. and Bord. pertussis 2 × 10^10) Active material applied intravenously immediately before antigen

blood pressure = test: Blood pressure reduction in awake rats with arterial high pressure (sodium chloride / 11-deoxycorticosteroneacetate); assay type: in vivo, rat; settings: 4 hours after application, median
Procedure: In order to establish the effectiveness of the novel products of the invention as agents for reducing blood pressure, a series of tests as follows were carried out.
The following were the test methods used:
The test animals were rats into which arterial catheters had been implanted in a sterile operation via the arteria femoralis into the aorta. It was possible to measure the animals' blood pressure in the awake state directly in the blood with a transducer (Statham Transducer Type TP 23 D 6) via a carrier frequency measuring bridge. The animals were treated by administration of 10% common salt (sodium chloride) in their feed and, starting on the sixth week of their life, two injections per week of 5 mg at a time of 11-deoxycorticosteroneacetate per animal and thus developed an arterial high pressure in the median with values of […]. The test compounds were administered to the animals as follows: After the blood pressure control values had been determined, the animals received the test compound perorally suspended in 10 ml of 1% methyl cellulose solution in the indicated dosage and measurements were taken 4 hours after oral application of the substance.
The values set forth in the Table represent in each case the median of at least 7 individual measurements of blood pressure depression (in mm Hg) per applied substance.

Compound | Maximum Blood Pressure Reduction (blood pressure; 25 mg/kg perorally) | other results
CCN(CC)C(=O)N1CCN(C)CC1 [Diethylcarbamazin, 1-diethylcarbamoyl-4-methylpiperazine, reference compound] | – | % Inhibition PCA ([1]; 60.0 mg/kg): 58%
Nc1ncnc2c1ncn2CCCN1CCC(COc2ccccc2)CC1 [Example 1, 9-[3-(4-Phenoxymethylpiperidino)-propyl]-adenine] | -76 ± 5 mm Hg | % Inhibition PCA ([1]; 0.38 mg/kg): 27%; % Inhibition PCA ([1]; 0.75 mg/kg): 45%
Nc1ncnc2c1ncn2CCCN1CCC(COc2ccccc2Br)CC1 [Example 1a, 9-{3-[4-(2-bromophenoxymethyl)-piperidino]-propyl}-adenine] | -47 ± 7 mm Hg | –
Nc1ncnc2c1ncn2CCCN1CCC(COc2ccccc2Cl)CC1 [Example 1b, 9-{3-[4-(2-chlorophenoxymethyl)-piperidino]-propy}-adenine] | -64 ± 5 mm Hg | % Inhibition PCA ([1]; 0.38 mg/kg): 32%
Nc1ncnc2c1ncn2CCCN1CCC(COc2ccc(Cl)cc2)CC1 [Example 1d, 9-{3-[4-(4-chlorophenoxymethyl)-piperidino]-propyl}-adenine] | – | Maximum Blood Pressure Reduction (blood pressure; 50 mg/kg perorally): -25 ± 7 mm Hg
Nc1ncnc2c1ncn2CCCN1CCC(COc2ccc(F)cc2)CC1 [Example 1e, 9-{3-[4-(4-fluorophenoxymethyl)-piperidino]-propyl}-adenine] | -60 ± 7 mm Hg | % Inhibition PCA ([1]; 0.38 mg/kg): 54%
COc1cccc(OCC2CCN(CCCn3cnc4c(N)ncnc43)CC2)c1 [Example 1g, 9-{3-[4-(3-methoxy-phenoxymethyl)-piperidino]-propyl}-adenine] | -18 ± 4 mm Hg | –
COc1ccc(OCC2CCN(CCCn3cnc4c(N)ncnc43)CC2)cc1 [Example 1h, 9-{3-[4-(4-methoxy-phenoxymethyl)-piperidino]-propyl}-adenine] | -19 ± 3 mm Hg | –
Cc1ccccc1OCC1CCN(CCCn2cnc3c(N)ncnc32)CC1 [Example 1i, 9-{3-[4-(2-methyl-phenoxymethyl)-piperidino]-propyl}-adenine] | -55 ± 7 mm Hg | –
CNc1ncnc2c1ncn2CCCN1CCC(COc2ccccc2)CC1 [Example 1j, N^6-methyl-9-[3-(4-phenoxymethyl-piperidino)-propyl]-adenine] | – | % Inhibition PCA ([1]; 0.38 mg/kg): 21%; % Inhibition PCA ([1]; 0.75 mg/kg): 60%
CNc1ncnc2c1ncn2CCCN1CCC(COc2ccc(F)cc2)CC1 [Example 1k, N^6-methyl-9-{3-[4-(4-fluorophenoxy-methyl)-piperidino]-propyl}-adenine] | -49 ± 8 mm Hg | % Inhibition PCA ([1]; 0.38 mg/kg): 21%
CCNc1ncnc2c1ncn2CCCN1CCC(COc2ccc(F)cc2)CC1 [Example 1m, N^6-ethyl-9-{3-[4-(4-fluorophenoxy-methyl)-piperidino]-propyl}-adenine] | -20 ± 6 mm Hg | –
OCCNc1ncnc2c1ncn2CCCN1CCC(COc2ccccc2)CC1 [Example 1n, N^6-(2-hydroxyethyl)-9-[3-(4-phenoxy-methyl-piperidino)-propyl]-adenine] | -48 ± 5 mm Hg | –
CCCNc1ncnc2c1ncn2CCCN1CCC(COc2ccccc2)CC1 [Example 1o, N^6-n-propyl-9-[3-(4-phenoxymethyl-piperidino)-propyl]-adenine] | -67 ± 7 mm Hg | –
CCCNc1ncnc2c1ncn2CCCN1CCC(COc2ccc(F)cc2)CC1 [Example 1p, N^6-n-propyl-9-{3-[4-(4-fluorophenoxy-methyl)-piperidino]-propyl}-adenine] | -57 ± 8 mm Hg | –
CN(C)c1ncnc2c1ncn2CCCN1CCC(COc2ccccc2)CC1 [Example 1q, 6-dimethylamino-9-[3-(4-phenoxymethyl-piperidino)-propyl]-purine] | -41 ± 7 mm Hg | –
CCCCNc1ncnc2c1ncn2CCCN1CCC(COc2ccc(F)cc2)CC1 [Example 2, N^6-n-Butyl-9-{3-[4-(4-fluorophenoxymethyl)-piperidino]propyl}-adenine] | -53 ± 6 mm Hg | –
CC(C)Nc1ncnc2c1ncn2CCCN1CCC(COc2ccccc2)CC1 [Example 2a, N^6-isopropyl-9-[3-(4-phenoxymethyl-piperidino)-propyl]-adenine] | -35 ± 9 mm Hg | –
CCCCNc1ncnc2c1ncn2CCCN1CCC(COc2ccccc2)CC1 [Example 2b, N^6-n-butyl-9-[3-(4-phenoxymethyl-piperidino)-propyl]-adenine] | – | Maximum Blood Pressure Reduction (blood pressure; 50 mg/kg perorally): -35 ± 11 mm Hg
CC(N)(Cc1ccc(O)c(O)c1)C(=O)O (stereo not drawn) [α-Methyl-Dopa, reference compound] | – | Maximum Blood Pressure Reduction (blood pressure; 150 mg/kg perorally): -33 ± 5 mm Hg
